Legend:
[1] = target: T1, GPR4 (Homo sapiens, UniProt P46093); test: Radioligand binding to homogenates of GPR4-transfected CHO cells; settings: GPR4-transfected CHO cell homogenates; for Kd: Scatchard analysis, [3H]SPC or [3H]16:0-LPC, read-out: dissociation constant (Kd); for Kd / maximum binding capacity: 4° C.; for competition for binding of [3H]SPC and [3H]16:0-LPC to GPR4: cold competitors
T1 construct: were used to generate full length GPR4, which was digested with EcoRI and Xba I and cloned into the pBs3HA vector; expressed in transfected cells
Protocol: To characterize the binding of SPC and LPC to GPR4 and TDAG8, we conducted radioligand binding assays. CHO cells were chosen for GPR4 binding assays, since HEK293 cells express relatively high levels of endogenous GPR4. CHO cells stably transfected with empty vector or GPR4 were serum starved for 20 h, then collected after exposure to 2 mM EDTA in PBS. The pelleted cells were stored at −80° C. until use. Binding assays were performed essentially as described previously (Xu et al. (2000) Nat Cell Biol 2, 261-267), except binding was performed at 4° C. Briefly, frozen cells (10^6 cells/ml) were homogenized in a binding buffer. Assays were performed in 96-well plates in triplicate with 100 μl cell homogenate (equivalent to 10^5 cells/well). Different amounts of [^3H]SPC or [^3H]16:0-LPC were added to the cell homogenates in 50 μl of binding buffer, in the presence or absence of cold SPC or 16:0-LPC, or other competitors. The plates were incubated at 4° C. for 120 min, unless otherwise indicated. Cell-bound [^3H]SPC or [^3H]LPC was collected onto a filter (Printed Filtermat A, Wallac, Gaithersburg, Md.) using an automated cell harvester (HARVESTER 96, Tomtec, Orange, Conn.). Specific binding was calculated by subtraction of nonspecific binding (binding detected in the presence of 100-fold excess unlabeled SPC or 16:0-LPC) from the total binding.
Cell homogenates were used for binding assays. Binding was conducted at 4° C. for 120 min or as indicated. [^3H]SPC and [^3H]16:0-LPC specifically bound to cell homogenates from GPR4-transfected CHO cells in a time-dependent manner and reached equilibrium after 60 min incubation at 4° C. […] The maximum binding capacities for SPC and 16:0-LPC were 996 fmole/10^5 cells for SPC and 1,528 fmole/10^5 cells for 16:0-LPC. […] Binding assays using [^3H]18:0-LPC gave similar results. We also tested the four glycosphingolipids, Psy, Glu-Sph, Gal-Cer, and Lac-Cer, for their ability to compete for the binding of [^3H]SPC and [^3H]16:0-LPC to GPR4.

[2] = target: T2, TDAG8 (Homo sapiens, UniProt Q8IYL9); test: MAP kinase reporter system in TDAG8 co-transfected HEK293 cells; assay type: cell-based; settings: 1-5 μM
T2 construct: expressed in transfected cells
Source text: To further explore the TDAG8-mediated cellular response to SPC, MAP kinase activation was examined using the MAP kinase reporter system from Stratagene.

[3] = target: T1, GPR4; test: Single-cell intracellular calcium assay (fura-2) in GPR4-GFP-transfected MCF10A cells; assay type: cell-based; settings: for EC50: GPR4-transfected MCF10A cells, 1 mM EGTA, read-out: EC50 of calcium mobilization; for block of the lipid-induced increase in [Ca2+]i by BSA: lipid 1 μM preincubated with 0.5% fatty acid-free BSA, lipid:BSA approximately 1:75; for increase in [Ca2+]i in GPR4- vs vector-transfected/parental MCF10A cells: lipid at 1 μM
Protocol: (§1) Measurement of [Ca^2+]i, was performed as described previously in Xu et al. (2000) Nat Cell Biol 2, 261-267. Briefly, pGPR4-GFP-transfected MCF10A cells were grown in specialized glass-bottom dishes (Bioptech, Inc., Butler, Pa.) and loaded with fura-2 in HEPES buffered saline. Using a dual-wavelength spectrofluorometer (RFK-6002, Photon Technology Int'l, So. Brunswick, N.J.) coupled to an inverted fluorescence microscope (Olympus, IX-70, Lake Success, N.Y.), GFP-positive cells were identified using an excitation wavelength of 488 nm, a dichroic 505 nm long-pass filter and an emitter filter at bandpass of 535 nm (Chroma Technology, Brattleboro, Vt.). Measurements of [Ca^2+]i were performed on individual GPR4-GFP positive cells at excitation wavelengths of 340 and 380 nm and an emission wavelength of 510 nm. Conversion of the 340/380 ratio value into [Ca^2+]i in nM was estimated by comparing the cellular fluorescence ratio with ratios acquired using fura-2 (free acid) in buffers containing known Ca^2+ concentrations. [Ca^2+]i was then calculated as described by Grynkiewicz et al. (1985) J Biol Chem 260, 3440-3450. All calcium assays were performed in the presence of 1 mM EGTA in the assay buffers. Therefore, intracellular calcium release, not calcium influx, was analyzed.
To test whether GPR4 is a receptor for SPC, MCF10A cells were transiently transfected with pGPR4-GFP.
The GFP receptor fusion was used to identify positively transfected cells, and single-cell calcium assays were performed as described in our previous studies, such as Xu et al. (2000) Nat Cell Biol 2, 261-267.

[4] = target: T3, OGR1 (Homo sapiens, UniProt Q15743); test: MAP kinase reporter system in OGR1 co-transfected cells; assay type: cell-based
T3 construct: expressed in transfected cells

[5] = target: T1, GPR4; test: Transwell cell migration of GPR4-transfected HEK293 cells; assay type: cell-based; settings: 0.2 μM
Protocol: To determine whether GPR4 and/or TDGA8 can mediate the LPC-induced cell migration, we transfected HEK293 cells with GPR4 or TDAG8. Cell migration was performed in Transwell apparatus. GPR4-transfected HEK293 cells, and TDAG8-transfected HEK293 cells migrated to the low-phase of the membrane and the lower chamber of the Transwell in response to SPC and LPC, used at 0.2 μM.

[6] = target: T4, endogenous PAF receptor (Homo sapiens, UniProt P25105); test: Calcium assay of the endogenous PAF receptor in MCF10A cells; assay type: cell-based; settings: parental MCF10A cells
T4 construct: endogenous in cells; host or cells: MCF10A (parental and GPR4-GFP-transfected)
Protocol: as §1
Therefore, it is unlikely that the increase in calcium induced by LPC was mediated by a PAF receptor.

[7] = target: T2, TDAG8; test: SRE luciferase reporter in TDAG8-transfected HEK293 cells; assay type: cell-based; settings: lipid 1 μM, TDAG8-transfected HEK293 cells
[8] = target: T1, GPR4; test: Internalization of GPR4-GFP in HEK293 cells (confocal microscopy); assay type: cell-based; settings: 1 μM lipid, 37° C., GPR4-GFP HEK293 cells
Protocol: pGPR4-GFP stably expressing HEK293 cells were cultured in 6 cm tissue culture dishes in RPMI1640 with 10% FBS. After 16-24 h serum starvation, cells were treated with different lipids at 37° C. for 2 h. Cells were washed with cold PBS and fixed with 4% paraformaldehyde in PBS. The subcellular localization of GPR4-GFP protein was visualized under a Leica TV confocal fluorescence microscope with a 63× oil immersion lens (Wetzler, Heidelberg, Germany). The excitation and emission wavelengths were 488 nm and 515-540 nm, respectively.
G protein coupled receptors undergo agonist-dependent desensitization and internalization. When HEK293 cells are transfected with the pEGFP-N1 vector, GFP protein is expressed in the cytosol of the cells. The GPR4-GFP and TDAG8-GFP fusion proteins, on the other hand, was expressed only on the plasma membrane.

T1 sequence (P46093 whole entry): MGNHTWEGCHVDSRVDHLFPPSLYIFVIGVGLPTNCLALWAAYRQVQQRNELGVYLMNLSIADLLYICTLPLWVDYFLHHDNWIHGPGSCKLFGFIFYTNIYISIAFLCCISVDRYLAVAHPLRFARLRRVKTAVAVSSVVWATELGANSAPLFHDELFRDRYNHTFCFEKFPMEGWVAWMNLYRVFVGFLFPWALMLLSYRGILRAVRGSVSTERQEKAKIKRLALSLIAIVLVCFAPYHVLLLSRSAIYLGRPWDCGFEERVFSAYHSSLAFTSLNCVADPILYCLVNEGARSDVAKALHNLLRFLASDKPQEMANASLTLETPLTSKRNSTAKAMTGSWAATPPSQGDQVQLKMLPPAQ
T2 sequence (Q8IYL9 whole entry): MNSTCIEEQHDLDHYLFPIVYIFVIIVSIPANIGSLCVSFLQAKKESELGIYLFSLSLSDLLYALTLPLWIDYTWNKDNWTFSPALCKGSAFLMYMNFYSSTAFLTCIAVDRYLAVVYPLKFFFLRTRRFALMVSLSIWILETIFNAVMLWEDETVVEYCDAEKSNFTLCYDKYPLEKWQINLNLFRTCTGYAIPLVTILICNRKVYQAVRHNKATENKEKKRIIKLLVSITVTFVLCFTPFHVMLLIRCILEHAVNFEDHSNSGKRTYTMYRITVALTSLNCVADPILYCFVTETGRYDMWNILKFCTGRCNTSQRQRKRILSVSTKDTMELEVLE
T3 sequence (Q15743 whole entry, species assumed): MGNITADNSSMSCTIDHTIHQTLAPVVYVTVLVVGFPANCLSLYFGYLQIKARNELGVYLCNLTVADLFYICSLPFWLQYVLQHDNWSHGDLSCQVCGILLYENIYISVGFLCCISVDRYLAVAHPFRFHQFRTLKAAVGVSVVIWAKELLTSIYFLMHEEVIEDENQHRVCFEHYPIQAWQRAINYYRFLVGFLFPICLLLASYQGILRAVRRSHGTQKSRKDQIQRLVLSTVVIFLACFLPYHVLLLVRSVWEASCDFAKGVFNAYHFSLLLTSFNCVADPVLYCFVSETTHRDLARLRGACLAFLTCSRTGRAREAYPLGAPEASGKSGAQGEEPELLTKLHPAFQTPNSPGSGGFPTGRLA
T4 sequence (P25105 whole entry): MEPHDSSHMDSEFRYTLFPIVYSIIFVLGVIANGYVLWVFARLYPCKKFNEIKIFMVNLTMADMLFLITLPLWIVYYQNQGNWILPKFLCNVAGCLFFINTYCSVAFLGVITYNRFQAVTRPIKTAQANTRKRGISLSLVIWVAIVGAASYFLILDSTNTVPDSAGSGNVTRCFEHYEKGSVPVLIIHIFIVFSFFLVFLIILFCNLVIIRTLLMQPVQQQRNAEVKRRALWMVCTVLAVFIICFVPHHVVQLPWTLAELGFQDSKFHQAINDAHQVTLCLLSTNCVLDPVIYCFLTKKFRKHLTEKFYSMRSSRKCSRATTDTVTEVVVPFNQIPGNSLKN

Row | Compound | Kd [1] [nM] | activation of p42/44 MAP kinase (reporter luciferase activity) [2] | EC50 [3] [nM] | block of the lipid-induced increase in [Ca2+]i by BSA [3] | MAP kinase activation (reporter) [4] | cell migration in Transwell (in words) [5] | calcium increase through the endogenous PAF receptor in parental cells [6] | activation of SRE reporter [7] [fold] | maximum binding capacity [1] | competition for binding of [3H]SPC and [3H]16:0-LPC to GPR4 [1] | increase in [Ca2+]i in GPR4- vs vector-transfected/parental MCF10A cells [3] | internalization of GPR4 [8]
1 | lysophosphatidylcholine [LPC] | 159 | induced activation of p42/44 MAP kinase | 1100 | > 95% | weakly inhibitory | increased cell migration | not able to induce an increase in calcium |  |  |  |  | 
2 | CCCCCCCCCCCCC/C=C/[C@@H](O)[C@@H](N)COP(=O)([O-])OCC[N+](C)(C)C [SPC, Sphingosylphosphorylcholine] | 36 | induced activation of p42/44 MAP kinase | 105 | more than 50% | only achieved by SPC | increased cell migration | not able to induce an increase in calcium | 4 | 996 fmole/10^5 cells | successfully competed for binding | stimulated an increase in [Ca^2+]i in GPR4-, but not vector-transfected MCF10A cells | induced internalization of GPR4
3 | CCCCCCCCCCCCCCCC(=O)OC[C@@H](O)COP(=O)([O-])OCC[N+](C)(C)C [16:0-LPC] | 159 |  |  |  |  |  |  | 3.1 | 1,528 fmole/10^5 cells | successfully competed for binding | stimulated to produce increased [Ca^2+]i | induced internalization of GPR4

Reference: patent publication US20020107197A1, “Ligands for G protein coupled receptors and methods of using them” (priority 2000, published 2002)
